Measurements published in US20020119917A1, “ANTI-INFLAMMATORY PEPTIDES DERIVED FROM C-REACTIVE PROTEIN” (priority 1996, published 2002).
Like-named read-outs stand apart in the source and are kept apart here. Starred links: 1 amine or outer side, 2 acyl side, 3 side chain; linkers in the order of their positions; H or OH if unused. Non-standard residues stand in square brackets, D forms with d. Residues, ends and D or L forms follow the SMILES beside them. No end group written: not given here. *: point of attachment. X1 = CC(C)C[C@H](NC(=O)[C@@H](N)CS*)C(=O)N[C@@H](Cc1c[nH]cn1)C(=O)N[C@@H](Cc1ccccc1)C(=O)O; NH(1-Adamantyl) = C1C2CC3CC1CC(N*)(C2)C3; Fmoc = O=C(OCC1c2ccccc2-c2ccccc21)*; NH(1-naphthyl) = c1ccc2c(N*)cccc2c1; MeOSuc = COC(=O)CCC(=O)*; Octanoyl = CCCCCCCC(=O)*; Cbz = O=C(OCc1ccccc1)*; CO = O=C([*:1])[*:2]

Experiments:
[1] = biological target: T1, human leukocyte elastase (hLE) (Homo sapiens, UniProt P08246); test: In-vitro inhibition of hLE (cleavage of MeOSuc-AAPV-NA); type: biochemical
T1 construct: Neutrophils (1.4 billion) were isolated from whole blood obtained from a single healthy laboratory donor; from tissue; host or cells: neutrophils from whole blood of a single healthy donor
T1 sequence (P08246 30-247 limits assumed): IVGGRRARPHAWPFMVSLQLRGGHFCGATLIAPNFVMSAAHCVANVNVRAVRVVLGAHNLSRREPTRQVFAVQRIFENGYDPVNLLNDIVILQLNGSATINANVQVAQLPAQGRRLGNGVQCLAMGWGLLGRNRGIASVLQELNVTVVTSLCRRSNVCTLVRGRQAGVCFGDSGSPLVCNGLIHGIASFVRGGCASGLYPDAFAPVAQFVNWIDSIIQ
Protocol: (§1) The enzymatic activity was assayed with MeOSuc-AAPV-NA for hLE determination and Suc-AAPF-NA for hCG determination (both in 100 mM Hepes buffer, pH 7.4, containing 0.05% of the […] detergent Brij-35). The activities of the individual enzymatic fractions were 100% free from cross-contamination. […] The fractions containing hLE and hCG were dialyzed each against 0.1% pyridinium acetate, pH 5.3, divided into 20 aliquots, lyophilized, and stored at −20° C. until use.
Peptides were dissolved in 100 mM Hepes buffer pH 7.4 containing 0.1% Brij-35 with 10% DMSO to yield 600 μM solutions, which were used to make further dilutions with the same buffer, and 80 μL aliquots were added in duplicates to 96-well plates. The substrate, 600 or 900 μM MeOSuc-AAPV-NA in the same buffer with 5% DMSO, was added to each well in addition to the blank wells, and the plate was placed in the plate reader equilibrated to 37° C. (Dynateck MR-6000). Lyophilized aliquots of hLE were dissolved in 1600 μL of 100 mM Hepes buffer without DMSO, and 80 μL of the enzyme solution was added to the peptides and substrate to initiate the reaction. […] The final volume was 240 μL containing: 5% DMSO, 1-200 μM of peptide, 200 μM substrate, and 0.75 μg (about 25 picomol) enzyme.
For hLE, V is determined by fitting a linear equation to the first 6 time-points (10 min) of the kinetics data using the least squares method. […] From calculating the error in the slope of the equation, the relative error for Ki was deduced:
Ki={slope*(1+[S]/Km)}^−1 because Ki=[I]*{(1+[S]/Km)*(Vo/Vi−1)}^−1.
The hLE inhibitory capability of CRP-derived peptides was evaluated by inhibiting the enzymatic cleavage of MeOSuc-AAPV-NA as described in Materials and Methods (section v).

[2] = biological target: T2, human leukocyte cathepsin G (hCG) (Homo sapiens, UniProt P08311); test: In-vitro inhibition of hCG (conversion of Suc-AAPF-NA); type: biochemical
T2 construct: Neutrophils (1.4 billion) were isolated from whole blood obtained from a single healthy laboratory donor; from tissue; host or cells: neutrophils from whole blood of a single healthy donor
T2 sequence (P08311 21-244 limits assumed): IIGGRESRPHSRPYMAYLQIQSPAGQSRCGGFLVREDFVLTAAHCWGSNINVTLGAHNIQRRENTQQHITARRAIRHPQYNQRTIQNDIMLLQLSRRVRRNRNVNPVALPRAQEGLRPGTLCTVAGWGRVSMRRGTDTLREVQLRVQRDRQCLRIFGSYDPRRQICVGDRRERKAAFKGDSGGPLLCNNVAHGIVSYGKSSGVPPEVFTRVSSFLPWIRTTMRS
Protocol: as §1
Similar conditions to hLE inhibition experiments ere used except the substrate: 80 μL of 1.8 mM Suc-AAPF-NA. The enzyme was issolved in 800 μL buffer, and the reaction was monitored every 6 min for 1 hour. The final volume was 240 μL containing: 5% DMSO, 1-500 μM peptide, 600 μM substrate, and 1.2 μg enzyme (about 40 picomol).
For hCG, V is determined by fitting a quadratic equation to the total kinetic data (60 min), using the least squares method and calculating V at t=0.
The inhibitory capability of several CRP-derived peptides was evaluated by inhibiting the enzymatic conversion of Suc-AAPF-NA (as described in Materials and Methods (vi) above).

hLE = biological target: T3, hLE (Homo sapiens, UniProt P08246); test: Degradation profiles of peptides by RP-HPLC after incubation with hLE; type: in vitro ADME; settings: incubated with hLE in PBS, 37° C., time-scale hours
T3 construct: Neutrophils (1.4 billion) were isolated from whole blood obtained from a single healthy laboratory donor; from tissue; host or cells: neutrophils from whole blood of a single healthy donor
T3 sequence (P08246 30-247 limits assumed): T1 sequence (P08246 30-247 limits assumed)
Protocol: Several active peptide inhibitors were dissolved in calcium- and magnesium-free phosphate-buffered saline (PBS), 125 μg/250 μL, mixed with 0.25 aliquots of hLE or hCG in 250 μL PBS and incubated at 37° C. Periodically (1,3,8, and 24 hour), 100 μL samples were removed from the reaction vessel. The samples were diluted with 150 μL of 0.1% TFA, frozen with liquid nitrogen, and stored at −20° C. prior to HPLC analysis.
More insight into the mechanism of inhibition is provided by HPLC time-course elution profiles of peptide 1, incubated with hLE in PBS (FIG. 2). […] The other bonds in peptide 1 are cleaved only after several days of incubation with the enzyme.

[3] = substrate MeOSuc-AAPV-NA, 100 mM Hepes pH 7.4, 37° C., read-out: hLE Ki
[4] = substrate Suc-AAPF-NA, 600 μM, read-out: hCG Ki

| Compound | Ki [1] [µM] | Ki [2] [µM] | further results |
| --- | --- | --- | --- |
| SFTVGGSEILFEVPEVTVAPVHICTSWESA [Peptide 3b] | 22 ± 4 | 200 ± 30 | – |
| DIGYSFTVGGSEILFEVPEVTVAPVHICT [Peptide 3c] | 4 | 22 ± 3 | – |
| CC[C@H](C)[C@H](NC(=O)[C@H](Cc1c[nH]cn1)NC(=O)[C@@H](NC(=O)[C@@H]1CCCN1C(=O)[C@H](C)NC(=O)[C@@H](NC(=O)[C@@H](NC(=O)[C@@H](NC(=O)[C@H](Cc1ccccc1)NC(=O)CCC(=O)OC)C(C)C)[C@@H](C)O)C(C)C)C(C)C)C(=O)O [Peptide 16, MeOSuc-Phe-Val89-Thr-Val-Ala-Pro-Val-His-Ile96] (MeOSuc-FVTVAPVHI-OH) | 100 ± 10 | 100 ± 200 | – |
| VTVAPVFI [Peptide 10, Val89-Thr-Val-Ala-Pro-Val-Phe-Ile96] | – | – | Ki [1, 3]: 110 ± 25 µM; Ki [2, 4]: 1 ± 0.2 µM |
| CC[C@H](C)[C@H](NC(=O)[C@H](Cc1c[nH]cn1)NC(=O)[C@@H](NC(=O)[C@@H]1CCCN1C(=O)[C@H](C)NC(=O)[C@@H](NC(=O)[C@@H](NC(=O)[C@@H](NC(=O)[C@H](Cc1ccccc1)NC(=O)OCc1ccccc1)C(C)C)[C@@H](C)O)C(C)C)C(C)C)C(=O)O [Peptide 21, CBz-Phe-Val89-Thr-Val-Ala-Pro-Val-His-Ile96] (Cbz-FVTVAPVHI-OH) | 380 ± 115 | 430 ± 60 | – |
| SFTVGGSEILFEVPEVTVAPVHICT [Peptide 3a] | 20 ± 3 | 180 ± 30 | – |
| CC[C@H](C)[C@H](NC(=O)[C@H](Cc1c[nH]cn1)NC(=O)[C@H](NC(=O)[C@@H]1CCCN1C(=O)[C@H](C)NC(=O)[C@@H](NC(=O)[C@@H](NC(=O)[C@@H](N)C(C)C)[C@@H](C)O)C(C)C)C(C)C)C(=O)O [Peptide 7, Val89-Thr-Val-Ala-Pro-(D)Val-His-Ile9] (H-VTVAP[dV]HI-OH; N-terminus and C-terminus assumed) | 330 ± 130 | – | cleavage by hLE (HPLC time-course elution profile) (hLE): No observable cleavage products |
| CC[C@H](C)[C@H](NC(=O)[C@H](Cc1c[nH]cn1)NC(=O)[C@@H](NC(=O)[C@@H]1CCCN1C(=O)[C@H](C)NC(=O)[C@@H](NC(=O)[C@@H](NC(=O)[C@@H](NC(=O)Nc1cccc2ccccc12)C(C)C)[C@@H](C)O)C(C)C)C(C)C)C(=O)O [Peptide 18, Naphtyl-NH-CO-Val89-Thr-Val-Ala-Pro-Val-His-Ile96] ({NH(1-naphthyl)-CO}-VTVAPVHI-OH) | 240 ± 35 | 300 ± 40 | – |
| GSEILFEVPEVTVAPVHI [Peptide 2, Gly79-Ser-Glu-Ile-Leu-Phe-Glu-Val-Pro-Glu-Val-Thr-Val-Ala-Pro-Val-His-Ile96] | 50 ± 5 | 1200 ± 200 | – |
| VTVAPFHIP-NH2 [Peptide 13, Val89-Thr-Val-Ala-Pro-Phe-His-Ile96-Pro-NH2] | – | – | Ki [1, 3]: 180 ± 30 µM; Ki [2, 4]: 900 ± 200 µM |
| LEAIPMSI [Peptide 24, Leu-Glu-Ala-Ile-Pro-Met-Ser-Ile, reference compound] | – | – | Ki [1, 3]: 350 ± 70 µM |
| CC[C@H](C)[C@H](NC(=O)[C@H](Cc1c[nH]cn1)NC(=O)[C@@H](NC(=O)[C@@H]1CCCN1C(=O)[C@H](C)NC(=O)[C@@H](NC(=O)[C@@H](NC(=O)[C@@H](NC(=O)NC12CC3CC(CC(C3)C1)C2)C(C)C)[C@@H](C)O)C(C)C)C(C)C)C(=O)O [Peptide 17, Adamantyl-NH-CO-Val89-Thr-Val-Ala-Pro-Val-His-Ile96] ({NH(1-Adamantyl)-CO}-VTVAPVHI-OH) | 130 ± 15 | – | – |
| Asn160-Met-Trp-Asp-Phe-Val165 [reference compound] | – | – | hLE inhibitory capability (in words) [1]: No significant inhibition |
| CC[C@H](C)[C@H](NC(=O)[C@H](Cc1c[nH]cn1)NC(=O)[C@@H](NC(=O)[C@@H]1CCCN1C(=O)[C@H](C)NC(=O)[C@@H](NC(=O)[C@@H](NC(=O)[C@@H](NC(=O)OCC1c2ccccc2-c2ccccc21)C(C)C)[C@@H](C)O)C(C)C)C(C)C)C(=O)O [Peptide 23, Fmoc-Val89-Thr-Val-Ala-Pro-Val-His-Ile96] (Fmoc-VTVAPVHI-OH) | 1000 ± 100 | 280 ± 30 | – |
| CC[C@H](C)[C@H](NC(=O)[C@H](Cc1c[nH]cn1)NC(=O)[C@@H](NC(=O)[C@@H]1CCCN1C(=O)[C@H](C)NC(=O)[C@@H](NC(=O)[C@@H](NC(=O)[C@@H](NC(=O)OCc1ccccc1)C(C)C)[C@@H](C)O)C(C)C)C(C)C)C(=O)O [Peptide 20, CBz-Val89-Thr-Val-Ala-Pro-Val-His-Ile96] (Cbz-VTVAPVHI-OH) | 165 ± 35 | – | – |
| VTVAPV [Peptide 25, Val89-Thr-Val-Ala-Pro-Val94] | – | – | Ki [1, 3]: 900 ± 300 µM |
| CC[C@H](C)[C@H](NC(=O)[C@H](Cc1c[nH]cn1)NC(=O)[C@@H](NC(=O)[C@@H]1CCCN1C(=O)[C@H](C)NC(=O)[C@@H](NC(=O)[C@@H](NC(=O)[C@@H](NC(=O)[C@H](CCC(=O)O)NC(=O)[C@@H]1CCCN1C(=O)[C@@H](NC(=O)[C@H](CCC(=O)O)NC(=O)[C@H](Cc1ccccc1)NC(=O)[C@H](CC(C)C)NC(=O)[C@@H](NC(=O)[C@H](CCC(=O)O)NC(=O)[C@H](CO)NC(=O)CN)[C@@H](C)CC)C(C)C)C(C)C)[C@@H](C)O)C(C)C)C(C)C)C(=O)N[C@@H](CSSC[C@H](N)C(=O)N[C@@H](CC(C)C)C(=O)N[C@@H](Cc1c[nH]cn1)C(=O)N[C@@H](Cc1ccccc1)C(=O)O)C(=O)O [Peptide 5, Gly79-Ser-Glu-Ile-Leu-Phe-Glu-Val-Pro-Glu-Val-Thr-Val-Ala-Pro-Val-His-Ile-Cys97-Cys36-His-Leu-Phe39] (H-GSEILFEVPEVTVAPVHIC(X1)-OH) | – | – | hCG inhibitory capability (in words) [2]: completely inactive |
| CCCCCCCC(=O)N[C@H](C(=O)N[C@H](C(=O)N[C@H](C(=O)N[C@@H](C)C(=O)N1CCC[C@H]1C(=O)N[C@H](C(=O)N[C@@H](Cc1c[nH]cn1)C(=O)N[C@H](C(=O)O)[C@@H](C)CC)C(C)C)C(C)C)[C@@H](C)O)C(C)C [Peptide 19, Octanoyl-Val89-Thr-Val-Ala-Pro-Val-His-Ile96] (Octanoyl-VTVAPVHI-OH) | 280 ± 25 | – | – |
| SFTVGGSEILFEVPEVTVAPVHI [Peptide 3] | 27 ± 3 | 500 ± 100 | – |
| CC[C@H](C)[C@H](NC(=O)[C@H](Cc1c[nH]cn1)NC(=O)[C@@H](NC(=O)[C@@H]1CCCN1C(=O)[C@H](C)NC(=O)[C@@H](NC(=O)[C@@H](NC(=O)[C@@H](N)C(C)C)[C@@H](C)O)C(C)C)C(C)C)C(=O)N[C@@H](CSSC[C@H](N)C(=O)N[C@@H](CC(C)C)C(=O)N[C@@H](Cc1c[nH]cn1)C(=O)N[C@@H](Cc1ccccc1)C(=O)O)C(=O)O [Peptide 4, Val89-Thr-Val-Ala-Pro-Val-His-Ile-Cys97-Cys36-His-Leu-Phe39] (H-VTVAPVHIC(X1)-OH) | – | – | hCG inhibitory capability (in words) [2]: completely inactive |
